Results on one compound are retold here after patent US6355616B1, “Derivative compounds derived from or based on bactericidal/permeability-increasing protein” (priority 1999, dated 2002).

For this data set, the system named is MDCK cells. Briefly: In vitro oral absorption screening, transepithelial transport across MDCK cell monolayers. In kind it is in vitro ADME, canine. On the procedure:
For these experiments, peptide-based constructs are screened for potential oral absorption in in vitro screening assays using MDCK and/or CACO-2 cells. Briefly, cultured monolayers of Madin-Derby canine kidney epithelial (MDCK) cells (ATCC Accession No. CCL-34) and/or CACO-2 (Human colon carcinoma) cells [Audus, K. L., et al. Phar. Res., 7:435-451 (1990) are grown upon collagen-coated, permeable-filter supports (Becton Dickinson, Mountain View, Calif.). The cells are grown to confluency and allowed to differentiate (e.g., about 3 days for MDCK cells or about 21 days for CACO-2 cells). The integrity of the monolayers is determined by measuring the transepithelial resistance. The cells are incubated with a peptide-based construct on the apical side for 2.5 hours in MDCK or CACO-2 screening. The transepithelial transport of the construct is measured by quantitative HPLC analysis of the incubation media on the basolateral side of the cells (forward transport). Radiolabelled mannitol and/or cortisone are used as positive controls. In addition, the efflux of the construct is measured by quantitative HLPC analysis of the incubation media on the apical side of the cells. This follows incubation of the cells with construct on the basolateral side for 2.5 hours. […]
Following the days post seeding, the cells are ready for transport experiments. […]
Apical control wells containing 1.5 mL TM with tritiated mannitol (^3H-mannitol, 1 μCi/mL; Dupont NEN Research Products, #NET-101, Boston, Mass.) are analyzed separately for counts per minute (cpm) of tritium to test the integrity of the MDCK cell monolayers. […]

Molecules are shown by their SMILES.

On to `CC[C@@H](C)[C@@H](NC(=O)[C@@H](CC(C)C)NC(=O)[C@@H](Cc1c[nH]c2ccccc12)NC(=O)[C@@H](CCCCN)NC(=O)c1ccccc1O)C(=O)N[C@H](CCC(N)=O)C(=O)N[C@H](CC(C)C)C(=O)N[C@H](Cc1ccccc1)C(=O)N[C@H](Cc1c[nH]cn1)C(=O)N[C@H](CCCCN)C(=O)N[C@H](CCCCN)C(N)=O` [XMP.560], for which the “cell absorption in MDCK cell screening assays” value turned out to be 2%. Moreover, under “apical to basolateral, 2.5 hours, donor ~100 μg/mL”, the “In Vitro Oral Availablity Screening (%) Forward” value is on record as “≧2%”. For the same compound, the “In Vitro Oral Availablity Screening (%) Efflux” value (basolateral to apical, 2.5 hours, donor ~100 μg/mL) is “≧2%”.
